The values that follow are results of earlier work, collected in patent US20130040915A1, “PHARMACEUTICAL COMPOSITION” (CAPITAL, BUSINESS Y GESTION DE FINANZAS, S.L., priority 2010, published 2013).

In series [1] the test system is tumor-induced hypercalcaemia. The following applies: subcutaneous infusion.
The conditions of series [2]: high concentrations, of the order of 4.8 mg/ml.
Test in series [3]: not given
This is another data set of the same source.

The subject of series [4] is adipose tissue cell membranes. The following applies: concentrations of 1%.

On to `O=P(O)(O)C(O)(Cn1ccnc1)P(=O)(O)O` [Zoledronic acid], for which the “chemical stability in autoclave sterilization condition” value is recorded as “chemically very stable”.

As to `O=P(O)(O)C(Cl)(Cl)P(=O)(O)O` [clodronate], the tolerability result in series [1] (1500 mg in 50 to 1000 ml, 2 to 24 hours) is reported as “well tolerated”. The “control of tumor-induced hypercalcaemia (lowering the level of calcium)” value in series [1] (149 patients, 254 infusions) is listed as “effective”.

As for `O=C([O-])CC(O)(CC(=O)[O-])C(=O)[O-].[Na+].[Na+].[Na+]` [sodium citrate], in series [2], the “pain after a subcutaneous injection compared with a solution with histidine” value was “more pain”.

Consider `C[C@H](CCC(=O)NCCS(=O)(=O)O)[C@H]1CC[C@H]2[C@@H]3[C@H](O)C[C@@H]4C[C@H](O)CC[C@]4(C)[C@H]3C[C@H](O)[C@]12C` [sodium taurocholate], for which the pKa in series [3] is reported as 1.4.

For the molecule sodium deoxycholate, in series [4], the “effect on adipose tissue cell membranes” value is “non-specific rupture of adipose tissue cell membranes”. In series [3], the pKa is 6.58. Further, in series [3] (pH 7.4 of the skin), the solubility entry was “sparingly soluble”.

As usually defined, the pKa is the pH at which an ionisable group is half protonated.
